IC50 data for 1 molecule are collected here from patent US20110160167A1, “Steroid Derivatives Acting As Glucocorticosteroid Receptor Agonists” (AstraZeneca AB, priority 2007, published 2011).

This test has as its target T1, recombinant human GR (Homo sapiens, UniProt P04150).
T1 construct: purchased Panvera/Invitrogen P2812 (kit P2893)
T1 sequence (P04150 1-777): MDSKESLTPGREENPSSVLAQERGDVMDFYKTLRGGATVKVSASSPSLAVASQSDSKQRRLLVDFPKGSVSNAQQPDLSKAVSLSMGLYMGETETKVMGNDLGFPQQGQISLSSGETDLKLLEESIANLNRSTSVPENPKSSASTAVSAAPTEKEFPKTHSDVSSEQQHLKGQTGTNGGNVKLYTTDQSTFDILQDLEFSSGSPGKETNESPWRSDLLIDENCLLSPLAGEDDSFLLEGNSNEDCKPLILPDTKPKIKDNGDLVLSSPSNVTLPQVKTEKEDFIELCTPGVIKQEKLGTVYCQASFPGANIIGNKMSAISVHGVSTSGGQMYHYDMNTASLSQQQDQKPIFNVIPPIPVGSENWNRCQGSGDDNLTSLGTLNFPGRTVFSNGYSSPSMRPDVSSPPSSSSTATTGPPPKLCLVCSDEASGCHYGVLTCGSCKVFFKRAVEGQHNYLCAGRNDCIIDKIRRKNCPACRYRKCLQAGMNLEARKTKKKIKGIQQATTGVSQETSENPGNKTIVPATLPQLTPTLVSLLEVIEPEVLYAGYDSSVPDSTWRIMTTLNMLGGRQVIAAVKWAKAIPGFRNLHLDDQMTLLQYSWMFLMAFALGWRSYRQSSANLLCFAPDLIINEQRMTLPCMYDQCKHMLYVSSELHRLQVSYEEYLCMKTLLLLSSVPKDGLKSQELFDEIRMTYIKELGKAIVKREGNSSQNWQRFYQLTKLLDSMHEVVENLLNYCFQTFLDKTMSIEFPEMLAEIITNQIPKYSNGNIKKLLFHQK
Kind of test: Human Glucocorticoid Receptor (GR) Assay (fluorescence polarization, Panvera/Invitrogen kit). To be noted: GS Red tracer, 2 hours at room temperature, 100% control 10 μM Dexamethasone, read-out: Inhibition of GR binding, IC50. How it is done:
Human Glucocorticoid Receptor (GR) Assay The assay is based on a commercial kit from Panvera/Invitrogen (Part number P2893). The assay technology is fluorescence polarization. The kit utilises recombinant human GR (Panvera, Part number P2812), a Fluoromone™ labelled tracer (GS Red, Panvera, Part number P2894) and a Stabilizing Peptide 10× (Panvera, Part number P2815). The GR and Stabilizing Peptide reagents are stored at −70° C. while the GS Red is stored at −20° C. Also included in the kit are 1M DTT (Panvera, Part number P2325, stored at −20° C.) and GR Screening buffer 10× (Panvera, Part number P2814, stored at −70° C. initially but once thawed stored at room temperature). Avoid repeated freeze/thaws for all reagents. The GR Screening buffer 10× comprises 100 mM potassium phosphate, 200 mM sodium molybdate, 1 mM EDTA and 20% DMSO. Test compounds (1 μL) and controls (1 μL) in 100% DMSO were added to black polystyrene 384-well plates (Greiner low volume black flat-bottom, part number 784076). 0% control was 100% DMSO and 100% control was 10 μM Dexamethasone. Background solution (8 μL; assay buffer 10×, Stabilizing Peptide, DTT and ice cold MQ water) was added to the background wells. GS Red solution (7 μL; assay buffer 10×, Stabilizing Peptide, DTT, GS Red and ice cold water) was added to all wells except background wells. GR solution (7 μL; assay buffer 10×, Stabilizing Peptide, DTT, GR and ice cold water) was added to all wells. The plate was sealed and incubated in a dark at room temperature for 2 hours. The plate was read in an Analyst plate reader (LJL Biosystems/Molecular Devices Corporation) or other similar plate reader capable of recording fluorescence polarization (excitation wavelength 530 nm, emission wavelength 590 nm and a dichroic mirror at 561 nm).
(Fluorescence polarisation rises when a labelled molecule tumbles more slowly, as on binding a larger partner.)

As a reminder, the IC50 is the concentration at which inhibition is half-maximal. As to `CCC[C@@H]1O[C@@H]2C[C@H]3[C@@H]4CCC5=Cc6c(cnn6-c6ccc(F)cc6)C[C@]5(C)[C@H]4[C@@H](O)C[C@]3(C)[C@]2(C(=O)SCC#N)O1` [Example 25, (4aR,4bS,5S,6aS,6bS,8R,9aR,10aS,10bS)-6b-(cyanomethylthiocarbonyl)-1-(4-fluorophenyl)-5-hydroxy-4a,6a-dimethyl-8-propyl-4,4a,4b,5,6,6a,9a,10,10a,10b,11,12-dodecahydro[1,3]dioxolo[3′,4′]cyclopenta[1′,2′:5,6]naphtho[1,2-f]indazol], the IC50 amounted to 0.012 µM.
